From US9597407B2, “Targeted antimicrobial moieties” (C3 Jian, Inc., priority 2009, dated 2017) come the findings set out here.

pIC50: −log10 of the molar value. Bridge positions count the residues as written; N and C are the ends. Square brackets hold non-standard residues; d marks the D form. Ends that are not written are not given here. Peptide text beside a SMILES is read from it. I, II: the chains in the order shown. Aoc = NCCCCCCCC(=O)O

As usually defined, the pIC50 is the IC50 on a negative log10 scale, so that one unit is a factor of ten.

The test system of series [1] is P. aeruginosa. Briefly: Post-antibiotic effect assay, monoculture growth after 10 min treatment. The class given is cell-based, Pseudomonas aeruginosa. The following applies: peptide 10 min, then fresh medium. Here is the method:
(§1) The activity and selectivity of MH-STAMPs after a 10 min incubation was determined by growth retardation experiments against targeted and untargeted bacteria in monocultures, as described previously (Id.). Cells from overnight cultures were diluted to ˜5×10^6 cfu/mL in MH (or TH with 1% sucrose for S. mutans), normalized by OD600 0.05-0.1 and seeded to 96-well plates. Cultures were then grown under the appropriate conditions for 2 h (3 h for S. mutans) prior to the addition of peptides for 10 min. Plates were then centrifuged at 3000×g for 5 min, the supernatants discarded, fresh medium returned (MH or TH without sucrose for S. mutans), and incubation resumed. Bacterial growth after treatment was then monitored over time by OD600.
(§2) MH-STAMP antimicrobial kinetics was ascertained utilizing a variation of the classical post-antibiotic effect assay, which measures the ability of an agent to affect an organism's growth after a short exposure period. Monocultures of MH-STAMP-targeted and untargeted organisms were exposed to M8(KH)-20, M8(BL)-20, BL(KH)-20, or unmodified BD2.20, then allowed to recover. […] Furthermore, replacement of the targeting region with a non-binding peptide abolishes specific activity.

Series [2] concerns S. mutans. The series is described as follows: Microbial population shift assay, mixed planktonic culture. The following applies: 10 μM peptide, 24 h, detection limit 200 cfu/mL. In kind it is cell-based, Streptococcus mutans. Here is the method:
(§3) Peptide (10 μM) or mock-treatment (1×PBS) was then added and samples were incubated at 37° C. for 24 h under anaerobic conditions (80% N2, 15% CO2, 5% H2). […] Plates were then incubated 37° C. under aerobic conditions (TH plates were incubated anaerobically) and colonies counted after 24 h to determine survivors. […] Gram stains and direct microscopic observation (from select isolated colonies) were undertaken to confirm species identity (data not shown). The detection limit of the assay was 200 cfu/mL.
(§4) We hypothesized that potential MH-STAMP dual-functionality could affect a particular set of bacteria within a mixed population, thereby promoting the outgrowth of non-targeted organisms and “shifting” the constituent makeup. To examine this possibility, defined mixed populations of planktonic cells were treated continuously and the make-up of the community examined after 24 h.

The subject of series [3] is P. aeruginosa. The description is as above. In kind it is cell-based, Pseudomonas aeruginosa. Conditions: 10 μM peptide, 24 h, detection limit 200 cfu/mL. Here is the method:
as §3, §4

For series [4], the system named is E. coli. The series is described as follows: Post-antibiotic effect assay, monoculture growth after 10 min treatment. In kind it is cell-based, Escherichia coli. The following applies: peptide 10 min, then fresh medium. The method, then: as §1, §2
In series [5] the test system is S. epidermidis. The description is as above. In kind it is cell-based, Staphylococcus epidermidis. Conditions: peptide 10 min, then fresh medium. Here is the method: as §1, §2
For series [6], the system named is S. epidermidis. Briefly: Microbial population shift assay, mixed planktonic culture. The class given is cell-based, Staphylococcus epidermidis. Conditions: 10 μM peptide, 24 h, detection limit 200 cfu/mL. Here is the method: as §3, §4
In series [7] the test system is S. mutans. Briefly: Post-antibiotic effect assay, monoculture growth after 10 min treatment. In kind it is cell-based, Streptococcus mutans. Conditions: peptide 10 min, then fresh medium. The method, then:
as §1, §2

Series [8] has as its system E. coli. Briefly: Microbial population shift assay, mixed planktonic culture. In kind it is cell-based, Escherichia coli. The following applies: 10 μM peptide, 24 h, detection limit 200 cfu/mL. Here is the method:
as §3, §4

The subject of another series is S. aureus. Briefly: Post-antibiotic effect assay, monoculture growth after 10 min treatment. The following applies: peptide 10 min, then fresh medium. The class given is cell-based, Staphylococcus aureus. The method, then: as §1, §2
The subject of another series is BHK-21 fibroblasts. The series is described as follows: Cytotoxicity, Promega CellTiterGlo assay. The class given is cell-based, hamster. Conditions: BHK cells. Here is the method: Streptococcus oralis ATCC 10557, Streptococcus gordonii (Challis), Streptococcus sanguinis (NY101), Streptococcus mitis ATCC 903, Streptococcus salivarius ATCC 13419 and S. mutans wild-type UA140 and JM11 (spectinomycin-resistant) strains were grown in Todd-Hewitt (TH) broth 37° C. in an anaerobic atmosphere of 80% N2, 10% CO2, and 10% H2. BHK-21 (ATCC CRL-10) fibroblasts were propagated in DMEM with 10% FBS, 1 mM sodium pyruvate, 100 units/mL penicillin G, and 100 μg/mL streptomycin at 37° C. with 5% CO2. Cells were detached with 0.25% trypsin and subcultured as recommended by the supplier.
The effect of RB and C16-RB on human fibroblasts was ascertained by utilizing the Promega CellTiterGlo assay, as described by the manufacturer. Briefly, fibroblasts were grown to confluence, detached, and seeded to ˜5,000 cells per well in a 96-well opaque walled, clear bottom 96-well plate (Nunc International). For long-term dark toxicity, cells were allowed to attach to for 18 h before the culture medium was replaced with medium plus serially-diluted RB or C16-RB (200 μM to 390 nM) or medium alone. After 18-24 h, equal volume Cell Titer Glo reagent was added to each well and mixed. Luciferace activity was then quantified to measure cell viability (Varian Fluorometer in Biolumenescence mode). […] After exposure, cultures were disrupted with Cell Titer Glo and luciferase activity quantitated as above.
(In general: Cellular ATP, detected with luciferase, serves as a proxy for viable cell number.)

The test system of series [9] is S. mutans JM11 and non-cariogenic oral streptococci in mixed biofilms. The series is described as follows: Selective photodynamic assay against multispecies biofilms. The class given is cell-based, Streptococcus mutans. Conditions: mixed biofilm, blue light, plus potassium gluconate. The method, then:
To gauge C16-RB selectivity for S. mutans, similar assays were conducted against multispecies biofilms. Mixed biofilms were seeded by diluting (1:5000) a mixture of equal parts S. oralis, S. gordonii, S. mitis, S. sanguinis, S. salivarius, and S. mutans JM11 (made from overnight cultures) into TH with 1% sucrose, 1% glucose, and 1% mannose. Biofilms were incubated and treated as described above with the addition of vitamin C or potassium gluconate. After the addition of agent and 5 min incubation, biofilms were washed 1× with 1×PBS prior to light exposure. After PDT and biofilm disruption, survivors were plated on TH, and TH supplemented with 800 μg/mL spectinomycin, which allowed for quantitation of surviving total oral streptococci and surviving S. mutans, respectively.
C16-RB was next evaluated for selectivity in mixed cultures containing S. mutans and non-cariogenic oral streptococci that compete for the same niche on the tooth surface. We utilized mixed biofilms of S. mutans transformed with spectinomycin resistance (strain JM11, Merritt, et al., 2005), plus S. oxalis, S. gordonii, S. mitis, S. sanguinis, and S. salivarius. The mixed cultures were grown 24 and then treated with RB or C16-RB as indicated, plus potassium gluconate to minimize killing of untargeted bacteria by reducing the superoxide-producing activity of the free C16-RB not bound to S. mutans. […]

The subject of the next series is S. mutans UA140 biofilms. The series is described as follows: Photodynamic antimicrobial assay against single-species biofilms. The class given is cell-based, Streptococcus mutans. Conditions: 5 μM, no light. The method, then: To evaluate C16-RB against monoculture biofilms, S. mutans UA140 was grown overnight in TH prior to inoculation for biofilm formation. For biofilms, 1:5000 dilution of overnight culture was made into TH with 1% sucrose in 2 mL centrifuge tubes (200 μL volume) and grown 24 h under anaerobic conditions. After incubation, biofilms were treated for 5 min with 5 or 25 μM C16-RB or 5 μM RB in 1×PBS, or PBS alone, followed by removal of supernatant and exposure to 5 min blue light (emission 400-550 nm, power 400 mW/cm^2) from an Astralis 7 (Ivoclar Vivodent, Austria) handheld LED commonly used as a dental curing light. The light source was suspended 4 cm from the tube bottom (even with the mouth of the tube). A duplicate set of samples were left covered to serve as dark controls. After treatment, biofilms were mechanically disrupted and plated to determine cfu/mL.
After synthesis, the basic photosensitization potential of C16-RB was assessed by challenging mature single-species S. mutans biofilms (grown 24 h) with C16-RB or unmodified RB, followed by blue emission from a dental curing light.

Series [10] has as its system S. mutans. The series is described as follows: STAMP activity in formulations (buffer/salt dependence). In kind it is cell-based, Streptococcus mutans. The source says:
During the course of evaluating STAMPs, antimicrobial peptides (AMPs), and binding peptides for desired activity, it was discovered that certain formulations can attenuate or promote peptide activity, as compared to activity levels in a default buffer system (1×PBS). In some cases, 1×PBS may provide the best level of activity. Below are a number of formulations that alter, or may alter, peptide or STAMP activity. For complex buffer systems, assume the base solvent is water unless otherwise stated.
It was a surprising discovery that certain anti-S. mutans STAMPs required a salt in the formulation (e.g., PBS) for optimum activity. […] Suitable PBS formulations ranged from 0.5×PBS to about 2.5×PBS with an activity optimum at about 1×PBS. Similar results are believed to obtain for other anti-S. mutans STAMPS as well as a number of other STAMPs. In certain embodiments STAMP stability in solution was improved by inclusion of fluoride in mouthrinse.

Consider `CC[C@H](C)[C@H](NC(=O)[C@@H](N)Cc1ccccc1)C(=O)N[C@@H](CCCNC(=N)N)C(=O)N[C@@H](CCCCN)C(=O)N[C@@H](Cc1ccccc1)C(=O)N[C@@H](CC(C)C)C(=O)N[C@@H](CCCCN)C(=O)N[C@@H](CCCCN)C(=O)N[C@@H](Cc1c[nH]c2ccccc12)C(=O)N[C@@H](CC(C)C)C(=O)N[C@@H](CC(C)C)C(N)=O` [BD2.20] (H-FIRKFLKKWLL-NH2; N-terminus assumed), for which the “P. aeruginosa growth (OD600) after treatment” value in the series with P. aeruginosa [1] was “robust antimicrobial activity”. For the same compound, in the series with S. mutans [2], the “surviving S. mutans cfu/mL” value is on record as “significant loss of recoverable cfu/mL”. The “surviving P. aeruginosa cfu/mL” value in the series on P. aeruginosa [3] is on record as “significant loss of recoverable cfu/mL”. Besides, the “E. coli growth (OD600) after treatment” value in the series with E. coli [4] is “inhibited”. Also, the “S. epidermidis growth (OD600) after treatment” value in the series with S. epidermidis [5] is “inhibited”. For the same compound, in the series with S. epidermidis [6], the “surviving S. epidermidis cfu/mL” value is on record as “significant loss of recoverable cfu/mL”. The “S. mutans growth (OD600) after treatment” value in the series with S. mutans [7] was “robust antimicrobial activity”. Further, the “surviving E. coli cfu/mL” value in the series on E. coli [8] is “significant loss of recoverable cfu/mL”. In addition, in the series on S. aureus, the “S. aureus growth (OD600) after treatment” value is “inhibited”.
Turning to `CC[C@H](C)[C@H](NC(=O)[C@H](Cc1ccccc1)NC(=O)CCCCCCCNC(=O)[C@H](CCCCNC(=O)CNC(=O)CNC(=O)CNC(=O)[C@H](Cc1c[nH]cn1)NC(=O)[C@H](CCCCN)NC(=O)[C@H](CCCNC(=N)N)NC(=O)[C@H](Cc1c[nH]cn1)NC(=O)[C@H](CCCCN)NC(=O)[C@H](CCCNC(=N)N)NC(=O)[C@H](Cc1c[nH]cn1)NC(=O)[C@H](CCCCN)NC(=O)[C@H](CCCNC(=N)N)NC(=O)[C@H](Cc1c[nH]cn1)NC(=O)[C@H](CCCCN)NC(=O)[C@@H](N)CCCCN)NC(=O)CNC(=O)CNC(=O)CNC(=O)[C@H](C)NC(=O)[C@H](CCC(=O)O)NC(=O)[C@H](CC(N)=O)NC(=O)[C@H](C)NC(=O)[C@H](C)NC(=O)[C@H](CC(=O)O)NC(C)=O)C(=O)N[C@@H](CCCNC(=N)N)C(=O)N[C@@H](CCCCN)C(=O)N[C@@H](Cc1ccccc1)C(=O)N[C@@H](CC(C)C)C(=O)N[C@@H](CCCCN)C(=O)N[C@@H](CCCCN)C(=O)N[C@@H](Cc1c[nH]c2ccccc12)C(=O)N[C@@H](CC(C)C)C(=O)N[C@@H](CC(C)C)C(N)=O` [BL(KH)-20] (I: Ac-DAANEAGGGK[Aoc]FIRKFLKKWLL-NH2 / II: H-KKHRKHRKHRKHGGG; amide I:10-II:C), the “surviving S. mutans cfu/mL” value with S. mutans [2] is “higher than input cfu/mL”. In addition, in the series with P. aeruginosa [3], the “surviving P. aeruginosa cfu/mL” value is on record as “not observed”. For the same compound, the “surviving S. epidermidis cfu/mL” value in the series on S. epidermidis [6] is reported as “unchanged numbers”. In addition, in the series on S. mutans [7], the “S. mutans growth (OD600) after treatment” value is “not altered”. Moreover, the “surviving E. coli cfu/mL” value with E. coli [8] was “unchanged numbers”.
With `O=C1OC2(c3cc(I)c(O)c(I)c3Oc3c2cc(I)c(O)c3I)c2c(Cl)c(Cl)c(Cl)c(Cl)c21` [RB, rose bengal], in the series with BHK-21 fibroblasts (5 min dark), the pIC50 was < 4.00. Also, the “photo-associated (light-dependent) toxicity” value in the series on BHK-21 fibroblasts (blue light exposure) is given as “light-dependent toxicity was observed”. Further, the “ratio of surviving S. mutans:non-cariogenic streptococci cfu” value in [9] is on record as ~1. The “decrease in cfu/mL, dark controls” value with S. mutans UA140 biofilms is “appreciable decreases in cfu/mL were not observed”.
For “TFFRLFNRSFTQALGKGGGKNLRIIRKGIHIIKKY* (TFFRLFNRSFTQALGKGGGKNLRIIRKGIHIIKKY-NH2) [Peptide C16G2, anti-S. mutans STAMP]”, the “activity optimum (PBS strength)” value with S. mutans [10] (PBS formulations 0.5×PBS to about 2.5×PBS) is on record as “about 1 ×PBS”. Also, the activity entry in the series on S. mutans [10] (water-based salt-free buffers and nanoemulsions) was “substantially inactive”.
